Measured values from PubChem BioAssay (NCI).
“And” between values parts separate entries of the source, which are not always exact repeats. Identical values can stand only once.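 Compound exposure: 48 hours, 5 concentrations, 96-well plates. GI50: concentration for 50% inhibition of growth. TGI: concentration producing complete growth inhibition.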

Assays:
Assay in all cases: NCI-60 cell line screen, 48 h
T-47D breast = system: T-47D breast
OVCAR-5 ovarian = system: OVCAR-5 ovarian
SK-OV-3 ovarian = system: SK-OV-3 ovarian
NCI/ADR-RES ovarian = system: NCI/ADR-RES ovarian
RPMI-8226 leukemia = system: RPMI-8226 leukemia
SF-539 CNS = system: SF-539 CNS
IGROV1 ovarian = system: IGROV1 ovarian
MALME-3M melanoma = system: MALME-3M melanoma
TK-10 renal = system: TK-10 renal
DU-145 prostate = system: DU-145 prostate
CAKI-1 renal = system: CAKI-1 renal
SF-295 CNS = system: SF-295 CNS
HCT-15 colon = system: HCT-15 colon
MDA-MB-435 = system: MDA-MB-435
RXF 393 renal = system: RXF 393 renal
HT29 colon = system: HT29 colon
MCF7 breast = system: MCF7 breast
HL-60(TB) leukemia = system: HL-60(TB) leukemia
A498 renal = system: A498 renal
ACHN renal = system: ACHN renal
K-562 leukemia = system: K-562 leukemia
EKVX NSCLC = system: EKVX NSCLC
HOP-62 NSCLC = system: HOP-62 NSCLC
A549 NSCLC = system: A549 NSCLC
786-0 renal = system: 786-0 renal
SN12C renal = system: SN12C renal
SW-620 colon = system: SW-620 colon
HCT-116 colon = system: HCT-116 colon
UACC-62 melanoma = system: UACC-62 melanoma
SK-MEL-5 melanoma = system: SK-MEL-5 melanoma
OVCAR-3 ovarian = system: OVCAR-3 ovarian
HS 578T breast = system: HS 578T breast
NCI-H23 lung = system: NCI-H23 lung
BT-549 breast = system: BT-549 breast
PC-3 prostate = system: PC-3 prostate
COLO 205 colon = system: COLO 205 colon
CCRF-CEM leukemia = system: CCRF-CEM leukemia
SK-MEL-2 melanoma = system: SK-MEL-2 melanoma
KM12 colon = system: KM12 colon
HCC-2998 colon = system: HCC-2998 colon
SK-MEL-28 melanoma = system: SK-MEL-28 melanoma
U251 CNS = system: U251 CNS
NCI-H522 lung = system: NCI-H522 lung
SF-268 CNS = system: SF-268 CNS
OVCAR-4 ovarian = system: OVCAR-4 ovarian
SNB-75 CNS = system: SNB-75 CNS
OVCAR-8 ovarian = system: OVCAR-8 ovarian
MOLT-4 leukemia = system: MOLT-4 leukemia
SNB-19 CNS = system: SNB-19 CNS
NCI-H460 lung = system: NCI-H460 lung
NCI-H226 lung = system: NCI-H226 lung
M14 melanoma = system: M14 melanoma
UO-31 renal = system: UO-31 renal
HOP-92 NSCLC = system: HOP-92 NSCLC
UACC-257 melanoma = system: UACC-257 melanoma
MDA-MB-231 breast = system: MDA-MB-231 breast
SR leukemia = system: SR leukemia
LOX IMVI melanoma = system: LOX IMVI melanoma

## O=S(=O)(c1ccc2c(c1)C(=NO)c1cc(S(=O)(=O)N3CCCCC3)ccc1-2)N1CCCCC1
T-47D breast
  GI50: 186 nM and 180 nM
  TGI: 423 nM and 384 nM
OVCAR-5 ovarian
  GI50: 153 nM and 151 nM
  TGI: 315 nM and 293 nM
SK-OV-3 ovarian
  GI50: 187 nM and 162 nM
  TGI: 362 nM and 311 nM
NCI/ADR-RES ovarian
  GI50: > 1000 nM and 196 nM
  TGI: > 1000 nM and 404 nM
RPMI-8226 leukemia
  GI50: 189 nM and 126 nM
  TGI: 424 nM and 452 nM
SF-539 CNS
  GI50: 227 nM and 170 nM
  TGI: 569 nM and 312 nM
IGROV1 ovarian
  GI50: 131 nM and 73.2 nM
  TGI: 494 nM and 213 nM
MALME-3M melanoma
  GI50: > 1000 nM and 174 nM
  TGI: > 1000 nM and 312 nM
TK-10 renal
  GI50: 669 nM and 177 nM
  TGI: > 1000 nM and 319 nM
DU-145 prostate
  GI50: 206 nM and 154 nM
  TGI: 397 nM and 296 nM
CAKI-1 renal
  GI50: 427 nM and 147 nM
  TGI: > 1000 nM and 282 nM
SF-295 CNS
  GI50: 188 nM and 141 nM
  TGI: 352 nM and 283 nM
HCT-15 colon
  GI50: 914 nM and 173 nM
  TGI: > 1000 nM and 323 nM
MDA-MB-435
  GI50: 173 nM and 102 nM
  TGI: 317 nM and 244 nM
RXF 393 renal
  GI50: > 1000 nM and 204 nM
  TGI: > 1000 nM and 358 nM
HT29 colon
  GI50: 856 nM and 194 nM
  TGI: > 1000 nM and 400 nM
MCF7 breast
  GI50: > 1000 nM and 178 nM
  TGI: > 1000 nM and 344 nM
HL-60(TB) leukemia
  GI50: 107 nM and 189 nM
  TGI: 326 nM and 549 nM
A498 renal
  GI50: > 1000 nM and 8880 nM
  TGI: > 1000 nM and 37500 nM
ACHN renal
  GI50: 188 nM and 163 nM
  TGI: 389 nM and 319 nM
K-562 leukemia
  GI50: 211 nM and 216 nM
  TGI: 452 nM and 785 nM
EKVX NSCLC
  GI50: 575 nM and 174 nM
  TGI: > 1000 nM and 323 nM
HOP-62 NSCLC
  GI50: 168 nM and 46.3 nM
  TGI: 360 nM and 105 nM
A549 NSCLC
  GI50: > 1000 nM and 187 nM
  TGI: > 1000 nM and 371 nM
786-0 renal
  GI50: 212 nM and 186 nM
  TGI: 499 nM and 342 nM
SN12C renal
  GI50: 208 nM and 144 nM
  TGI: 438 nM and 280 nM
SW-620 colon
  GI50: 197 nM and 74.3 nM
  TGI: 437 nM and 174 nM
HCT-116 colon
  GI50: 200 nM and 153 nM
  TGI: 434 nM and 333 nM
UACC-62 melanoma
  GI50: 227 nM and 174 nM
  TGI: 612 nM and 329 nM
SK-MEL-5 melanoma
  GI50: > 1000 nM and 174 nM
  TGI: > 1000 nM and 314 nM
OVCAR-3 ovarian
  GI50: 870 nM and 177 nM
  TGI: > 1000 nM and 321 nM
HS 578T breast
  GI50: 240 nM and 198 nM
  TGI: 772 nM and 480 nM
NCI-H23 lung
  GI50: > 1000 nM and 162 nM
  TGI: > 1000 nM and 314 nM
BT-549 breast
  GI50: 173 nM and 179 nM
  TGI: 332 nM and 326 nM
PC-3 prostate
  GI50: 263 nM and 171 nM
  TGI: 812 nM and 381 nM
COLO 205 colon
  GI50: > 1000 nM and 194 nM
  TGI: > 1000 nM and 363 nM
CCRF-CEM leukemia
  GI50: 72.7 nM
  TGI: 338 nM
SK-MEL-2 melanoma
  GI50: > 1000 nM and 176 nM
  TGI: > 1000 nM and 331 nM
KM12 colon
  GI50: 508 nM and 184 nM
  TGI: > 1000 nM and 356 nM
HCC-2998 colon
  GI50: 298 nM and 134 nM
  TGI: > 1000 nM and 273 nM
SK-MEL-28 melanoma
  GI50: 346 nM and 177 nM
  TGI: > 1000 nM and 326 nM
U251 CNS
  GI50: > 1000 nM and 178 nM
  TGI: > 1000 nM and 344 nM
NCI-H522 lung
  GI50: > 1000 nM and 107 nM
  TGI: > 1000 nM and 252 nM
SF-268 CNS
  GI50: 215 nM and 120 nM
  TGI: 440 nM and 318 nM
OVCAR-4 ovarian
  GI50: 195 nM and 63.6 nM
  TGI: 426 nM and 143 nM
SNB-75 CNS
  GI50: 147 nM and 58.7 nM
  TGI: 287 nM and 151 nM
OVCAR-8 ovarian
  GI50: 306 nM and 90.4 nM
  TGI: 842 nM and 281 nM
MOLT-4 leukemia
  GI50: 204 nM and 215 nM
  TGI: 433 nM and 832 nM
SNB-19 CNS
  GI50: 303 nM and 184 nM
  TGI: 962 nM and 326 nM
NCI-H460 lung
  GI50: 214 nM and 106 nM
  TGI: 465 nM and 268 nM
NCI-H226 lung
  GI50: 292 nM and 106 nM
  TGI: 936 nM and 298 nM
M14 melanoma
  GI50: 182 nM and 187 nM
  TGI: 330 nM and 349 nM
UO-31 renal
  GI50: 160 nM and 46.7 nM
  TGI: 319 nM and 110 nM
HOP-92 NSCLC
  GI50: > 1000 nM and 220 nM
  TGI: > 1000 nM and 524 nM
UACC-257 melanoma
  GI50: 170 nM
  TGI: 320 nM
MDA-MB-231 breast
  GI50: 179 nM and 56.2 nM
  TGI: 360 nM and 112 nM

## OCC1C(O)C(O)[C@@H]2SCCN12 (some centres not stated)
T-47D breast
  TGI: > 100000 nM
OVCAR-5 ovarian
  TGI: > 100000 nM
SK-OV-3 ovarian
  TGI: > 100000 nM
NCI/ADR-RES ovarian
  TGI: > 100000 nM
RPMI-8226 leukemia
  TGI: > 100000 nM
IGROV1 ovarian
  TGI: > 100000 nM
MALME-3M melanoma
  TGI: > 100000 nM
TK-10 renal
  TGI: > 100000 nM
DU-145 prostate
  TGI: > 100000 nM
CAKI-1 renal
  TGI: > 100000 nM
SF-295 CNS
  TGI: > 100000 nM
HCT-15 colon
  TGI: > 100000 nM
MDA-MB-435
  TGI: > 100000 nM
SR leukemia
  TGI: > 100000 nM
RXF 393 renal
  TGI: > 100000 nM
HT29 colon
  TGI: > 100000 nM
HL-60(TB) leukemia
  TGI: > 100000 nM
A498 renal
  TGI: > 100000 nM
ACHN renal
  TGI: > 100000 nM
K-562 leukemia
  TGI: > 100000 nM
EKVX NSCLC
  TGI: > 100000 nM
HOP-62 NSCLC
  TGI: > 100000 nM
A549 NSCLC
  TGI: > 100000 nM
786-0 renal
  TGI: > 100000 nM
SW-620 colon
  TGI: > 100000 nM
HCT-116 colon
  TGI: > 100000 nM
UACC-62 melanoma
  TGI: > 100000 nM
SK-MEL-5 melanoma
  TGI: > 100000 nM
OVCAR-3 ovarian
  TGI: > 100000 nM
HS 578T breast
  TGI: > 100000 nM
NCI-H23 lung
  TGI: > 100000 nM
BT-549 breast
  TGI: > 100000 nM
PC-3 prostate
  TGI: > 100000 nM
COLO 205 colon
  TGI: > 100000 nM
CCRF-CEM leukemia
  TGI: > 100000 nM
SK-MEL-2 melanoma
  TGI: > 100000 nM
LOX IMVI melanoma
  TGI: > 100000 nM
KM12 colon
  TGI: > 100000 nM
HCC-2998 colon
  TGI: > 100000 nM
SK-MEL-28 melanoma
  TGI: > 100000 nM
U251 CNS
  TGI: > 100000 nM
NCI-H522 lung
  TGI: > 100000 nM
SF-268 CNS
  TGI: > 100000 nM
OVCAR-4 ovarian
  TGI: > 100000 nM
SNB-75 CNS
  TGI: > 100000 nM
OVCAR-8 ovarian
  TGI: > 100000 nM
MOLT-4 leukemia
  TGI: > 100000 nM
SNB-19 CNS
  TGI: > 100000 nM
NCI-H460 lung
  TGI: > 100000 nM
NCI-H226 lung
  TGI: > 100000 nM
M14 melanoma
  TGI: > 100000 nM
UO-31 renal
  TGI: > 100000 nM
HOP-92 NSCLC
  TGI: > 100000 nM
UACC-257 melanoma
  TGI: > 100000 nM
MDA-MB-231 breast
  TGI: > 100000 nM
